Laboratory results published in patent US20220213144A1, “HALOGENATED ANTIMICROBIAL PEPTOIDS” (priority 2019, published 2022).
Converted amounts (≈) assume the structure as drawn. Where two headings read alike, the source gives them in different places. Values belong to the compound of their own block, whether it stands above or below them. Square brackets hold non-standard residues; d marks the D form. Peptide text beside a SMILES is read from it. Gly(Nα-4-Cl-benzyl) = O=C(O)CNCc1ccc(Cl)cc1; N(4-Br-benzyl)Gly = O=C(O)CNCc1ccc(Br)cc1; N(4-F-Bzl)Gly = O=C(O)CNCc1ccc(F)cc1; NBzl(4-I)Gly = O=C(O)CNCc1ccc(I)cc1; Nphe = O=C(O)CNCc1ccccc1; Nlys = NCCCCNCC(=O)O

Tests used:
[1] = tested on: methicillin-restant S. epidermidis ET-024; format: cell-based, Staphylococcus epidermidis; settings: for MIC against MRSE: strain not named; for increase in activity against MRSE: 8-mer and 10-mer, compared to unsubstituted controls 10 and 19
Description: (§1) Bacterial growth inhibition was determined by using broth microdilution according to the Clinical Laboratory Standards Institute. The antibacterial activity of peptoids was tested against S. aureus ATCC 25923, ATCC29213, and methicillin resistant S. aureus USA 300, methicillin resistant S. epidermidis ATCC 51625, a biofilm producing methicillin resistant S. epidermidis […], P. aeruginosa Pa01 (H103), and E. coli ATCC 25922. Bacteria, grown on agar plates for 18 hours at 37° C., were diluted to ˜1×10^8 CFU/mL in Mueller-Hinton Broth II (MHB II). Twofold serial dilutions of peptoids in MHB II were inoculated with the bacteria to achieve a final concentration of 5×10^5 CFU/mL in polypropylene 96 U-well microtiter plates (Corning™ 3897; ThermoFisher Scientific, Roskilde), followed by incubation at 37° C. in ambient air for 18 hours. The MIC values were determined as the lowest concentration showing no visible bacterial growth. Experiments were performed twice (in technical triplicates) on different days.

[2] = Small angle X-ray scattering, critical aggregation concentration from fit; format: physicochemical; settings: for critical aggregation concentration (CAC): SAXS fit analysis, bundle model
Description: SAXS experiments of the 10-mer peptoids were performed on the automated BM29 bioSAXS beamline at the European Synchrotron Radiation Facility (ESRF) in Grenoble, France. The data was obtained using an energy of 12.5 keV and a detector distance of 2.87 m, covering a q range (q=4π sin(θ/2)/λ), where θ is the scattering angle and λ is the X-ray wavelength) of about 0.0047 Å-1 to 0.5 Å-1. The data set was calibrated to an absolute intensity scale using water as a primary standard. Samples (40 μL) were run through a capillary using the flow mode of the automated sample changer. SAXS data was collected in ten successive frames of 0.5 s each to monitor radiation damage, and the data reduction was done using the standard tool at BM29.
The SAXS experiments on the fully iodinated 6-, 8-, and 12-mers to determine the CAC of the compounds were performed using a Bruker NANOSTAR equipped with a microfocus X-ray source (IμS Cu, Incoatec, Germany) and a VANTEC-2000 detector. Raw scattering data was calibrated to absolute intensity scale using water as a primary standard and radially averaged in order to obtain the 1D scattered intensity profile as a function of the scattering vector, with a wavelength of 1.54 Å.
where fagg is the fraction of peptoid chains aggregated in bundles, allowing for calculation of a CAC from ϕCAC=ϕ−(fagg*ϕ).

seven bacterial strains = experiment: MIC by broth microdilution, whole panel of bacterial strains; format: cell-based; settings: in words
Description: All 36 peptoids were tested against seven bacterial strains. These included five Gram-positive strains (Staphylococcus aureus ATCC 25923 and ATCC 29213, methicillin-resistant Staphylococcus aureus USA 300, methicillin-restant Staphylococcus epidermidis ET-024 and ATCC 51625) and two Gram-negative strains (Escherichia coli ATCC 25922 and Pseudomonas aeruginosa PA01) (see TABLE 1).
as §1

[3] = tested on: methicillin-restant S. epidermidis ATCC 51625; format: cell-based, Staphylococcus epidermidis; settings: for MIC against MRSE: text b77, 6-mers, strain not named, values fit ATCC 51625
Description: as §1

S. aureus ATCC 25923 = format: cell-based, Staphylococcus aureus; settings: for increase in activity against S. aureus: compared to the unsubstituted control peptoid of same length; for MIC against S. aureus: strain not named
Description: as §1

[4] = 8-mers and 10-mers, values fit ET-024
[5] = Table 2, 10-mers, SAXS at ESRF, model fit
[6] = Table 3, fully iodinated peptoids, bundle model fit

Structure (SMILES): NCCCCNCC(=O)N(CC(=O)N(CCCCN)CC(=O)N(CC(=O)N(CCCCN)CC(=O)N(CC(=O)N(CCCCN)CC(=O)N(CC(=O)N(CCCCN)CC(=O)N(CC(N)=O)Cc1ccccc1)Cc1ccccc1)Cc1ccccc1)Cc1ccccc1)Cc1ccccc1 [Compound 19] (H-[Nlys][Nphe][Nlys][Nphe][Nlys][Nphe][Nlys][Nphe][Nlys][Nphe]-NH2; N-terminus assumed)
MIC against MRSE [1, 4]: 128 mg/L (≈ 91.8 µM)
CAC [2, 5]: >5 mg/mL
potency against the selected bacterial strains (seven bacterial strains): inactive

Structure (SMILES): NCCCCNCC(=O)N(CC(=O)N(CCCCN)CC(=O)N(CC(=O)N(CCCCN)CC(=O)N(CC(=O)N(CCCCN)CC(=O)N(CC(N)=O)Cc1ccc(I)cc1)Cc1ccc(I)cc1)Cc1ccc(I)cc1)Cc1ccc(I)cc1 [Compound 14] (H-[Nlys][NBzl(4-I)Gly][Nlys][NBzl(4-I)Gly][Nlys][NBzl(4-I)Gly][Nlys][NBzl(4-I)Gly]-NH2; N-terminus assumed)
increase in activity against MRSE [1]: 128 fold
MIC against MRSE [1]: 2 mg/L (≈ 1.23 µM)
critical aggregation concentration (CAC) [2]: 1.4 mg/mL
CAC [2, 6]: 1.4 mg/mL

Structure (SMILES): NCCCCNCC(=O)N(CC(=O)N(CCCCN)CC(=O)N(CC(=O)N(CCCCN)CC(=O)N(CC(N)=O)Cc1ccccc1)Cc1ccccc1)Cc1ccccc1 [Compound 1] (H-[Nlys][Nphe][Nlys][Nphe][Nlys][Nphe]-NH2; N-terminus assumed)
MIC against MRSE [3]: 512 mg/L (≈ 607 µM)
potency against the selected bacterial strains (seven bacterial strains): inactive

Structure (SMILES): NCCCCNCC(=O)N(CC(=O)N(CCCCN)CC(=O)N(CC(=O)N(CCCCN)CC(=O)N(CC(=O)N(CCCCN)CC(=O)N(CC(N)=O)Cc1ccccc1)Cc1ccccc1)Cc1ccccc1)Cc1ccccc1 [Compound 10] (H-[Nlys][Nphe][Nlys][Nphe][Nlys][Nphe][Nlys][Nphe]-NH2; N-terminus assumed)
MIC against MRSE [1, 4]: 256 mg/L (≈ 229 µM)
potency against the selected bacterial strains (seven bacterial strains): inactive

Structure (SMILES): NCCCCNCC(=O)N(CC(=O)N(CCCCN)CC(=O)N(CC(=O)N(CCCCN)CC(=O)N(CC(=O)N(CCCCN)CC(=O)N(CC(=O)N(CCCCN)CC(=O)N(CC(N)=O)Cc1ccc(Br)cc1)Cc1ccc(Br)cc1)Cc1ccc(Br)cc1)Cc1ccc(Br)cc1)Cc1ccc(Br)cc1 [Compound 22] (H-[Nlys][N(4-Br-benzyl)Gly][Nlys][N(4-Br-benzyl)Gly][Nlys][N(4-Br-benzyl)Gly][Nlys][N(4-Br-benzyl)Gly][Nlys][N(4-Br-benzyl)Gly]-NH2; N-terminus assumed)
increase in activity against S. aureus (S. aureus ATCC 25923): > 256 fold
MIC against S. aureus (S. aureus ATCC 25923): 2 mg/L (≈ 1.12 µM)
increase in activity against MRSE [1]: 128 fold
MIC against MRSE [1, 4]: 1 mg/L (≈ 0.559 µM)
critical aggregation concentration (CAC) [2]: 2.3 mg/mL
CAC [2, 5]: 2.3 mg/mL

CAC [2, 5]: >5 mg/mL
Structure (SMILES): NCCCCNCC(=O)N(CC(=O)N(CCCCN)CC(=O)N(CC(=O)N(CCCCN)CC(=O)N(CC(=O)N(CCCCN)CC(=O)N(CC(=O)N(CCCCN)CC(=O)N(CC(N)=O)Cc1ccc(I)cc1)Cc1ccccc1)Cc1ccc(I)cc1)Cc1ccccc1)Cc1ccc(I)cc1 [Compound 27] (H-[Nlys][NBzl(4-I)Gly][Nlys][Nphe][Nlys][NBzl(4-I)Gly][Nlys][Nphe][Nlys][NBzl(4-I)Gly]-NH2)

CAC [2, 5]: >5 mg/mL
Structure (SMILES): NCCCCNCC(=O)N(CC(=O)N(CCCCN)CC(=O)N(CC(=O)N(CCCCN)CC(=O)N(CC(=O)N(CCCCN)CC(=O)N(CC(=O)N(CCCCN)CC(=O)N(CC(N)=O)Cc1ccc(Cl)cc1)Cc1ccccc1)Cc1ccc(Cl)cc1)Cc1ccccc1)Cc1ccc(Cl)cc1 [Compound 25] (H-[Nlys][Gly(Nα-4-Cl-benzyl)][Nlys][Nphe][Nlys][Gly(Nα-4-Cl-benzyl)][Nlys][Nphe][Nlys][Gly(Nα-4-Cl-benzyl)]-NH2)

CAC [2, 5]: >5 mg/mL
Structure (SMILES): NCCCCNCC(=O)N(CC(=O)N(CCCCN)CC(=O)N(CC(=O)N(CCCCN)CC(=O)N(CC(=O)N(CCCCN)CC(=O)N(CC(=O)N(CCCCN)CC(=O)N(CC(N)=O)Cc1ccc(Cl)cc1)Cc1ccc(Cl)cc1)Cc1ccc(Cl)cc1)Cc1ccc(Cl)cc1)Cc1ccc(Cl)cc1 [Compound 21] (H-[Nlys][Gly(Nα-4-Cl-benzyl)][Nlys][Gly(Nα-4-Cl-benzyl)][Nlys][Gly(Nα-4-Cl-benzyl)][Nlys][Gly(Nα-4-Cl-benzyl)][Nlys][Gly(Nα-4-Cl-benzyl)]-NH2; N-terminus assumed)

CAC [2, 5]: >5 mg/mL
Structure (SMILES): NCCCCNCC(=O)N(CC(=O)N(CCCCN)CC(=O)N(CC(=O)N(CCCCN)CC(=O)N(CC(=O)N(CCCCN)CC(=O)N(CC(=O)N(CCCCN)CC(=O)N(CC(N)=O)Cc1ccc(F)cc1)Cc1ccccc1)Cc1ccc(F)cc1)Cc1ccccc1)Cc1ccc(F)cc1 [Compound 24] (H-[Nlys][N(4-F-Bzl)Gly][Nlys][Nphe][Nlys][N(4-F-Bzl)Gly][Nlys][Nphe][Nlys][N(4-F-Bzl)Gly]-NH2)

critical aggregation concentration (CAC) [2]: 0.4 mg/mL
CAC [2, 6]: 0.4 mg/mL
Structure (SMILES): NCCCCNCC(=O)N(CC(=O)N(CCCCN)CC(=O)N(CC(=O)N(CCCCN)CC(=O)N(CC(=O)N(CCCCN)CC(=O)N(CC(=O)N(CCCCN)CC(=O)N(CC(=O)N(CCCCN)CC(=O)N(CC(N)=O)Cc1ccc(I)cc1)Cc1ccc(I)cc1)Cc1ccc(I)cc1)Cc1ccc(I)cc1)Cc1ccc(I)cc1)Cc1ccc(I)cc1 [Compound 32] (H-[Nlys][NBzl(4-I)Gly][Nlys][NBzl(4-I)Gly][Nlys][NBzl(4-I)Gly][Nlys][NBzl(4-I)Gly][Nlys][NBzl(4-I)Gly][Nlys][NBzl(4-I)Gly]-NH2; N-terminus assumed)

Structure (SMILES): NCCCCNCC(=O)N(CC(=O)N(CCCCN)CC(=O)N(CC(=O)N(CCCCN)CC(=O)N(CC(N)=O)Cc1ccc(I)cc1)Cc1ccc(I)cc1)Cc1ccc(I)cc1 [Compound 5] (H-[Nlys][NBzl(4-I)Gly][Nlys][NBzl(4-I)Gly][Nlys][NBzl(4-I)Gly]-NH2; N-terminus assumed)
increase in activity against S. aureus (S. aureus ATCC 25923): more than 64 fold
MIC against S. aureus (S. aureus ATCC 25923): 8 mg/L (≈ 6.55 µM)
increase in activity against MRSE ([3]; 6-mer, compared to unsubstituted control 1): 256 fold
MIC against MRSE [3]: 2 mg/L (≈ 1.64 µM)
critical aggregation concentration (CAC) [2]: 2.8 mg/mL
CAC [2, 6]: 2.8 mg/mL

Structure (SMILES): NCCCCNCC(=O)N(CC(=O)N(CCCCN)CC(=O)N(CC(=O)N(CCCCN)CC(=O)N(CC(=O)N(CCCCN)CC(=O)N(CC(=O)N(CCCCN)CC(=O)N(CC(=O)N(CCCCN)CC(=O)N(CC(N)=O)Cc1ccccc1)Cc1ccccc1)Cc1ccccc1)Cc1ccccc1)Cc1ccccc1)Cc1ccccc1 [Compound 28] (H-[Nlys][Nphe][Nlys][Nphe][Nlys][Nphe][Nlys][Nphe][Nlys][Nphe][Nlys][Nphe]-NH2; N-terminus assumed)
potency against the selected bacterial strains (seven bacterial strains): inactive

CAC [2, 5]: >5 mg/mL
Structure (SMILES): NCCCCNCC(=O)N(CC(=O)N(CCCCN)CC(=O)N(CC(=O)N(CCCCN)CC(=O)N(CC(=O)N(CCCCN)CC(=O)N(CC(=O)N(CCCCN)CC(=O)N(CC(N)=O)Cc1ccc(F)cc1)Cc1ccc(F)cc1)Cc1ccc(F)cc1)Cc1ccc(F)cc1)Cc1ccc(F)cc1 [Compound 20] (H-[Nlys][N(4-F-Bzl)Gly][Nlys][N(4-F-Bzl)Gly][Nlys][N(4-F-Bzl)Gly][Nlys][N(4-F-Bzl)Gly][Nlys][N(4-F-Bzl)Gly]-NH2; N-terminus assumed)

critical aggregation concentration (CAC) [2]: 0.5 mg/mL
CAC [2, 5]: 0.4 mg/mL
CAC [2, 6]: 0.5 mg/mL
Structure (SMILES): NCCCCNCC(=O)N(CC(=O)N(CCCCN)CC(=O)N(CC(=O)N(CCCCN)CC(=O)N(CC(=O)N(CCCCN)CC(=O)N(CC(=O)N(CCCCN)CC(=O)N(CC(N)=O)Cc1ccc(I)cc1)Cc1ccc(I)cc1)Cc1ccc(I)cc1)Cc1ccc(I)cc1)Cc1ccc(I)cc1 [Compound 23] (H-[Nlys][NBzl(4-I)Gly][Nlys][NBzl(4-I)Gly][Nlys][NBzl(4-I)Gly][Nlys][NBzl(4-I)Gly][Nlys][NBzl(4-I)Gly]-NH2; N-terminus assumed)
